Laboratory results as given in patent US9446047B2, “Substituted 2,3-dihydro-1H-inden-1-one retinoic acid-related orphan nuclear receptor antagonists for treating multiple sclerosis” (Arrien Pharmaceuticals LLC, priority 2013, dated 2016).

Columns and labels:
RORγt = target: T1, RORγt (Homo sapiens, UniProt P51449); test: RORγt-activated IL-17A Prom/LUCPorter HEK 293 cells luciferase reporter assay; type: cell-based; conditions: IL-17A Prom/LUCPorter HEK 293 cells transfected with RORγt, 16 h; read-out: RORγt Cell Specific
T1 construct: host or cells: IL-17A Prom/LUCPorter HEK 293 cell line (IMGENEX, IML-301)
T1 sequence (P51449 1-497 isoform P51449-2): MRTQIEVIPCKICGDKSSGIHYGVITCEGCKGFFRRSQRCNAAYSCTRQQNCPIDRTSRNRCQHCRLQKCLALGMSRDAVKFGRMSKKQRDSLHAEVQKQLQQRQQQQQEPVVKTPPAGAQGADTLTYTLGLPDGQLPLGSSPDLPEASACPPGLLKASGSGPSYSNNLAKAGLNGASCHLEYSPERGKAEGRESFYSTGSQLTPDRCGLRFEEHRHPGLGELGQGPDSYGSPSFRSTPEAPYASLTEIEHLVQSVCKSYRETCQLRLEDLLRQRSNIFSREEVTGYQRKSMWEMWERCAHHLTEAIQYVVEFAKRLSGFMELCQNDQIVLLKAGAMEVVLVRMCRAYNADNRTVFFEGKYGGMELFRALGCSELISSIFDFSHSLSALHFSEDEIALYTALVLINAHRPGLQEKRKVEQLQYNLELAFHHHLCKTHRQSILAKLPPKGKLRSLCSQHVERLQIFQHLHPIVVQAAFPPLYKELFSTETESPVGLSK
Procedure: Antagonistic (or inverse agonistic) effects of the test compounds on the RORγt-activated IL-17A Prom/LUCPorter™ HEK 293 cells were analyzed and IC50 of each compound was evaluated. […] Luciferase activity was analyzed using the luciferase reporter assay reagent (IMGENEX, LS100). The data were analyzed using Excel and Prism software. Percent activity was defined as 100×(1−(Well−Control A)/(Control B−Control A)), where Control A was the wells containing cells transfected with RORγt and Control B was the wells containing non-transfected cells. Both Controls A and B were treated with vehicle alone.

[1] = system: IL-17 release from CD4+ T cells; test: Cytokine IL-17 estimation by HTRF, IL-17 release from CD4+ T cells; type: cell-based; conditions: Homo sapiens, IL-17 release from CD4+ T cells, HTRF, read-out: IL-17 Inhibition
Description: The assay was designed to assess the potency of test compounds on IL-17 cytokine release from CD4+ T cells. In order to aid in the identification of potent inhibitors, the IC50's determined for the test compounds IL-17 release from CD4+ T cells through the generation of 10 point Dose Response Curves (DRC). Assay methods used to quantify IL-17 secretion is HTRF (Homogenous Time Resolved Fluorescence). IL-17 secreted is detected by anti-IL-17 MAb labeled with XL665, the second MAb labeled with Cryptate, which binds to specific epitopes of human IL-17. Upon close proximity of both acceptor and donor energy transfer (FRET) occurs. This technique has been further enhanced by using long-lived labels combined with the detection on a time-resolved fluorescence basis, allowing […] of prompt fluorescence interferences.
The assay was performed according to manufacturer's instruction. All the reagents were reconstituted according to instructions provided. The reagents were dispensed into a half area 96-well plate in the following order: […] or sample, IL-17 MAbXL665 and 5 μL IL-17 Cryptate. For the negative control, the standard or sample is replaced by […]. The plate is covered with a plate sealer and incubated at rt for 2 h. Following incubation, the plate sealer is removed and the plate is read using HTRF protocol on Envision Microplate reader. All of the data analysis was carried out using Microsoft Excel (2010) and IC50 was determined using GraphPad Prism 4 software. % Inhibition of the test compounds were determined utilizing the following formula: % Inhibition=100−(100*(Average Test Compound Counts−Average Negative Control Counts)/(Average Positive Control Counts−Average Negative Control Counts)).
We have established robust in vitro cell-based HTRF assay for the activation and stimulation of CD4+ T lymphocytes to T helper 17 (Th17) cell differentiation and IL-17 production.

RORγ-LBD (RORγt) = target: T2, RORγ-LBD (RORγt) (Homo sapiens, UniProt P51449); test: TR-FRET RORγt Binding Assay; conditions: 6-His(GST)RORγ-LBD, SRC1_2 peptide, read-out: RORγt Binding
T2 construct: the 6-His-(GST) RORγ-LBD was used which expressed and purified from baculovirus infected Sf-21 insect cells; made in house; host or cells: baculovirus-infected Sf-21 insect cells
T2 sequence (P51449 269-508 limits assumed): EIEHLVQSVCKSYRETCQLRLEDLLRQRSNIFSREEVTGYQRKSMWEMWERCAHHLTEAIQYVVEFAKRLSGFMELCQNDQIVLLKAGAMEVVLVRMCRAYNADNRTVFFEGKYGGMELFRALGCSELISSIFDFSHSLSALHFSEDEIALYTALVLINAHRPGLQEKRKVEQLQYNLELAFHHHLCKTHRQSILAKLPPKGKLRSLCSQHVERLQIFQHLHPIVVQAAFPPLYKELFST
Procedure: TR-FRET RORγt Binding Assay: RORγ-LBD contains a 6-His and GST tag peptide from SRC1-2 an aminoterminal biotinyl-[…] was employed and the 6-His-(GST) RORγ-LBD was used which expressed and purified from baculovirus infected Sf-21 insect cells from Invitrogen and purified using glutathione sepharose. […] The peptide binding due to dose-curves of compounds was added the 0.1% DMSO. Fluorescence at wavelength 340 nm was read in each well of […] using an Envision fluorescence reader in Time Resolved mode after overnight incubation at 4° C.

SMILES | IC50 (RORγt) [nM] | IC50 [1] [nM] | IC50 (RORγ-LBD (RORγt)) [nM]
COc1cc2c(cc1N1CCN(C)CC1)CC(Cc1cc(OC(F)(F)F)cc(C(O)(C(F)(F)F)C(F)(F)F)c1)C2=O (stereo not drawn) [compound 236, 2-(3-(1,1,1,3,3,3-hexafluoro-2-hydroxypropan-2-yl)-5-(trifluoromethoxy)benzyl)-6-methoxy-5-(4-methylpiperazin-1-yl)-2,3-dihydro-1H-inden-1-one] | > 1000 | < 500 | > 1000
COc1ccc2c(c1Cl)CC(Cc1ncccc1C(F)(F)F)C2=O (stereo not drawn) [compound 179] | > 1000 | < 500 | < 500
CCS(=O)(=O)Oc1cc2c(cc1OC)CC(Cc1ccc(SC(F)(F)F)cc1)C2=O (stereo not drawn) [compound 188] | > 1000 | < 500 | < 500
COc1cc2c(cc1N1CCOCC1)CC(Cc1c(F)ccc(NC3CCN(C)CC3)c1F)C2=O (stereo not drawn) [compound 44, 2-(2,6-difluoro-3-((1-methylpiperidin-4-yl)amino)benzyl)-6-methoxy-5-morpholino-2,3-dihydro-1H-inden-1-one] | – | > 10000 | –
COc1cc2c(c(N3CCN(C)CC3)c1OC)CC(Cc1ncccc1C(F)(F)F)C2=O (stereo not drawn) [compound 128, 5,6-dimethoxy-4-(4-methylpiperazin-1-yl)-2-((3-(trifluoromethyl)pyridin-2-yl)methyl)-2,3-dihydro-1H-inden-1-one] | > 1000 | > 1000 | > 1000
COc1cc2c(cc1NC1CCN(C)CC1)CC(Cc1ncccc1C(F)(F)F)C2=O (stereo not drawn) [compound 146] | > 1000 | < 500 | > 1000
COc1cc2c(cc1N1CCN(C)CC1)CC(Cc1cccc(C(F)(F)F)c1Cl)C2=O (stereo not drawn) [compound 110, 2-(2-chloro-3-(trifluoromethyl)benzyl)-6-methoxy-5-(4-methylpiperazin-1-yl)-2,3-dihydro-1H-inden-1-one] | < 500 | > 1000 | < 500
COc1cc2c(cc1N1CCC(C)CC1)CC(Cc1ncccc1C(F)(F)F)C2=O (stereo not drawn) [compound 142] | > 1000 | < 500 | > 1000
COc1cc2c(cc1N1CCN(C)C(C)C1)CC(Cc1ccc(Cl)cc1F)C2=O (stereo not drawn) [compound 20, 2-(4-chloro-2-fluorobenzyl)-5-(3,4-dimethylpiperazin-1-yl)-6-methoxy-2,3-dihydro-1H-inden-1-one] | > 10000 | > 1000 | > 1000
COc1cc2c(cc1N1CCOCC1)CC(Cc1sc(N3CCOCC3)nc1Cl)C2=O (stereo not drawn) [compound 47, 2-((4-chloro-2-morpholinothiazol-5-yl)methyl)-6-methoxy-5-morpholino-2,3-dihydro-1H-inden-1-one] | > 1000 | > 1000 | > 1000
COc1ccc2c(c1Cl)CC(Cc1ccc(SC(F)(F)F)cc1)C2=O (stereo not drawn) [compound 177] | > 1000 | < 500 | < 500
COc1cc2c(c(N3CCC(C)CC3)c1OC)CC(Cc1ccc(SC(F)(F)F)cc1)C2=O (stereo not drawn) [compound 131, 5,6-dimethoxy-4-(4-methylpiperidin-1-yl)-2-(4-((trifluoromethyl)thio)benzyl)-2,3-dihydro-1H-inden-1-one] | > 1000 | > 1000 | > 1000
CCS(=O)(=O)Oc1ccc2c(c1)CC(Cc1ccc(SC(F)(F)F)cc1)C2=O (stereo not drawn) [compound 194] | < 500 | < 500 | < 500
COc1cc2c(cc1N1CCN(C)C(C)C1)CC(CC1CCN(Cc3ccccc3)CC1)C2=O (stereo not drawn) [compound 25, 2-((1-benzylpiperidin-4-yl)methyl)-5-(3,4-dimethylpiperazin-1-yl)-6-methoxy-2,3-dihydro-1H-inden-1-one] | > 10000 | – | –

Second part, the compound after the results:

IC50 (RORγt) [nM] | IC50 [1] [nM] | IC50 (RORγ-LBD (RORγt)) [nM] | SMILES
> 1000 | > 1000 | > 1000 | COc1cc2c(cc1N1CCOCC1)CC(Cc1ccc(Cl)cc1C(F)(F)F)C2=O (stereo not drawn) [compound 56, 2-(4-chloro-2-(trifluoromethyl)benzyl)-6-methoxy-5-morpholino-2,3-dihydro-1H-inden-1-one]
< 500 | – | > 10000 | COc1cc2c(cc1N1CCN(C)CC1)CC(Cc1cccc(C(F)(F)F)c1)C2=O (stereo not drawn) [compound 156]
> 1000 | – | > 1000 | COc1cc2c(cc1N1CCOCC1)CC(Cc1ccc(C(F)(F)F)nc1)C2=O (stereo not drawn) [compound 83]
< 500 | > 1000 | < 500 | COc1cc2c(cc1N1CCOCC1)CC(Cc1cc(Br)cc(OC(F)(F)F)c1)C2=O (stereo not drawn) [compound 32, 2-(3-bromo-5-(trifluoromethoxy)benzyl)-6-methoxy-5-morpholino-2,3-dihydro-1H-inden-1-one]
> 10000 | > 1000 | > 10000 | COc1cc2c(cc1N1CCOCC1)CC(Cc1ccc(C(F)(F)F)nc1)C2=O (stereo not drawn) [compound 71, 6-methoxy-5-morpholino-2-((6-(trifluoromethyl)pyridin-3-yl)methyl)-2,3-dihydro-1H-inden-1-one]
< 500 | < 500 | < 500 | COc1cc2c(cc1N1CCOCC1)CC(Cc1c(F)ccc(C(O)(C(F)(F)F)C(F)(F)F)c1F)C2=O (stereo not drawn) [compound 232, 2-(2,6-difluoro-3-(1,1,1,3,3,3-hexafluoro-2-hydroxypropan-2-yl)benzyl)-6-methoxy-5-morpholino-2,3-dihydro-1H-inden-1-one]
> 1000 | > 1000 | < 500 | COc1cc2c(cc1N1CCNCC1)CC(Cc1ccc(SC(F)(F)F)cc1)C2=O (stereo not drawn) [compound 117]
> 1000 | > 1000 | > 1000 | COc1cc2c(cc1N1CCOCC1)CC(Cc1cc(C)n[nH]1)C2=O (stereo not drawn) [compound 95]
> 1000 | < 500 | > 1000 | COc1cc2c(cc1N1CCC(C)CC1)CC(Cc1cccc(C(F)(F)F)c1)C2=O (stereo not drawn) [compound 154]
– | – | > 1000 | COc1cc2c(cc1N1CCN(C)CC1)CC(Cc1ncccc1C(F)(F)F)C2=O (stereo not drawn) [compound 250]
< 500 | – | > 1000 | COc1cc2c(cc1N1CCNCC1)CC(Cc1ncccc1C(F)(F)F)C2=O (stereo not drawn) [compound 249]
> 1000 | > 1000 | > 1000 | COc1cc2c(cc1N1CCOCC1)CC(Cc1ccc(Cl)cc1F)C2=O (stereo not drawn) [compound 16, 2-(4-chloro-2-fluorobenzyl)-6-methoxy-5-morpholino-2,3-dihydro-1H-inden-1-one]
– | – | < 500 | COc1cc2c(cc1N1CCOCC1)CC(Cc1cncc(C(O)(C(F)(F)F)C(F)(F)F)c1)C2=O (stereo not drawn) [compound 264]
– | > 1000 | > 1000 | COc1cc2c(cc1N1CCOCC1)CC(Cc1c(F)cccc1F)C2=O (stereo not drawn) [compound 42, 2-(2,6-difluorobenzyl)-6-methoxy-5-morpholino-2,3-dihydro-1H-inden-1-one]
